Literature values, collected in PMC4832308 (Cancer, 2015).

What was measured:
[1] = test system: patients; settings: phase 1 study; cited from earlier work
[2] = test system: patients; settings: phase 1 study, cited from earlier work

| SMILES | best response SD rate [1] | patients with best response SD [1] | patients with a response ([2]; MM) | response rate ([2]; MM) | response duration ([2]; patient with MM) | patients with SD [2] |
| --- | --- | --- | --- | --- | --- | --- |
| COc1ccc(-c2ccc3c(N4CCOC[C@@H]4C)nc(N4CCOC[C@@H]4C)nc3n2)cc1CO [AZD8055] | 14.3% | 7 patients |  |  |  |  |
| CC(C)n1nc(-c2ccc3oc(N)nc3c2)c2c(N)ncnc21 [MLN0128] |  |  | 1 patient | 4% | ~2 months | 15 patients |
